Source: patent US12371454B2, “Cyclic peptide compound having Kras inhibitory action” (priority 2019, dated 2025)
Starred links: 1 amine or outer side, 2 acyl side, 3 side chain; linkers in the order of their positions; H or OH if unused. Positions of bridges follow the written chain, without caps; N, C: chain ends. Non-standard residues stand in square brackets, D forms with d. Residues, ends and D or L forms follow the SMILES beside them. *: point of attachment. hPhe(3-Cl-4-CF3) = N[C@@H](CCc1ccc(C(F)(F)F)c(Cl)c1)C(=O)O; hPhe(3-F,4-CF3) = N[C@@H](CCc1ccc(C(F)(F)F)c(F)c1)C(=O)O; hPhe(4-CF3) = N[C@@H](CCc1ccc(C(F)(F)F)cc1)C(=O)O; NMePhe(4-CN) = CN[C@@H](Cc1ccc(C#N)cc1)C(=O)O; NMePhe(4-Cl) = CN[C@@H](Cc1ccc(Cl)cc1)C(=O)O; NMePhe(4-Me) = CN[C@@H](Cc1ccc(C)cc1)C(=O)O; NMedβ3hAla = C[C@H](CC(=O)[*:2])N(C)[*:1]; Phe(3-I) = N[C@@H](Cc1cccc(I)c1)C(=O)O; Pro(4,4-F2) = O=C(O)[C@@H]1CC(F)(F)CN1; NMehPhe = CN[C@@H](CCc1ccccc1)C(=O)O; NMeCha = CN[C@@H](CC1CCCCC1)C(=O)O; NMeGly(cPr) = CN[C@H](C(=O)O)C1CC1; Gly(N-(CH2)2OEt) = CCOCCNCC(=O)O; NMeF = CN[C@@H](Cc1ccccc1)C(=O)O; NMeI = CC[C@H](C)[C@H](NC)C(=O)O; NMeβAla = CN(CCC(=O)[*:2])[*:1]; NMeD = CN[C@@H](CC(=O)O)C(=O)O; NMeL = CN[C@@H](CC(C)C)C(=O)O; NMeV = CN[C@H](C(=O)O)C(C)C; d(β3hA) = C[C@@H](N)CC(=O)O; NMeA = CN[C@@H](C)C(=O)O; Nle = CCCC[C@H](N)C(=O)O; Piperidide = C1CCN(*)CC1; Pyrrolidide = C1CCN(*)C1; Ac5c = NC1(C(=O)O)CCCC1; Ac4c = NC1(C(=O)O)CCC1; Sar = CNCC(=O)O

Molecular target: T1, Kras and SOS1 (biotin-tagged human Kras loaded with GDP, His-tagged human SOS1) (Homo sapiens, UniProt P01116, G12D)
T1 construct: made in house; host or cells: E. coli (stated for Kras only)
T1 sequence (P01116 1-188 isoform P01116-2 G12D): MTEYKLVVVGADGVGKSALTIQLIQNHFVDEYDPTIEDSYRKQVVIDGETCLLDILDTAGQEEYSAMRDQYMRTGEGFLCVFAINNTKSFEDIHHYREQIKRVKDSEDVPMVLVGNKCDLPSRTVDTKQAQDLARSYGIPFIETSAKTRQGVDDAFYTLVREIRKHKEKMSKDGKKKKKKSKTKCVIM
Experiment: Protein-protein interaction inhibition between Kras and SOS1 (KrasGl2D-SOS PPI) using AlphaScreen
Assay type: binding
Conditions: AlphaScreen; biotin-tagged human Kras loaded with GDP, His-tagged human SOS1; read-out: KRAS G12D-SOS PPI IC50
Method in brief: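 Binding between SOS1 and Kras is detected as bead-proximity luminescence: illuminate Ni-conjugated donors (680 nm), collect 520-620 nm emission from streptavidin-conjugated acceptors; Kras carries biotin and GDP loaded after purification, SOS1 carries a His tag.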

SMILES	IC50
CCOCCN1CC(=O)N(C)[C@@H](CC2CCCCC2)C(=O)N(C)CC(=O)N[C@@H](CCc2ccc(C(F)(F)F)c(Cl)c2)C(=O)N2CCC[C@H]2C(=O)NC2(CCCC2)C(=O)N(C)[C@@H](C(C)C)C(=O)N[C@H](C)CC(=O)N(C)[C@@H](CC(C)C)C(=O)N[C@@H]([C@@H](C)CC)C(=O)N(C)CC1=O [Compound 864] (cyclo([Ac5c][NMeV][d(β3hA)][NMeL]I[Sar][Gly(N-(CH2)2OEt)][NMeCha][Sar][hPhe(3-Cl-4-CF3)]P))	73 nM
CC[C@H](C)[C@@H]1NC(=O)[C@H](C)N(C)C(=O)C[C@@H](C)NC(=O)[C@H](C(C)C)N(C)C(=O)[C@H](Cc2ccccc2)N(C)C(=O)[C@@H]2CCCN2C(=O)[C@H](CCc2ccc(C(F)(F)F)cc2)NC(=O)CN(C)C(=O)[C@H](Cc2ccc(Cl)cc2)N(C)C(=O)CN(C)C(=O)CN(C)C1=O [Compound 865] (cyclo(I[Sar][Sar][NMePhe(4-Cl)][Sar][hPhe(4-CF3)]P[NMeF][NMeV][d(β3hA)][NMeA]))	55 nM
CC[C@H](C)[C@@H]1NC(=O)[C@H](CC(C)C)N(C)C(=O)C[C@@H](C(=O)N2CCCCC2)N(C)C(=O)[C@H](C(C)C)N(C)C(=O)C2(CCCC2)NC(=O)[C@@H]2CCCN2C(=O)[C@H](CCc2ccc(C(F)(F)F)c(Cl)c2)NC(=O)CN(C)C(=O)[C@H](Cc2ccc(C#N)cc2)N(C)C(=O)CN(C)C(=O)CN(C)C1=O [Compound 867] ([NMeL]I[Sar][Sar][NMePhe(4-CN)][Sar][hPhe(3-Cl-4-CF3)]P[Ac5c][NMeV][NMeD]-Piperidide; lactam N-11)	3.4 nM
CC[C@H](C)[C@@H]1NC(=O)[C@H](CC(C)C)N(C)C(=O)C[C@@H](C)N(C)C(=O)[C@H]([C@@H](C)CC)N(C)C(=O)C2(CCC2)NC(=O)[C@@H]2CC(F)(F)CN2C(=O)[C@H](CCc2ccc(C(F)(F)F)c(Cl)c2)NC(=O)CN(C)C(=O)[C@H](Cc2ccc(C)cc2)N(C)C(=O)CN(C)C(=O)CN(C)C1=O [Compound 869] (cyclo([Ac4c][NMeI][NMedβ3hAla][NMeL]I[Sar][Sar][NMePhe(4-Me)][Sar][hPhe(3-Cl-4-CF3)][Pro(4,4-F2)]))	9.8 nM
CC[C@H](C)[C@@H]1NC(=O)[C@H](C)N(C)C(=O)C[C@@H](C)NC(=O)[C@H](CC(C)C)N(C)C(=O)[C@H](Cc2ccccc2)N(C)C(=O)[C@@H]2CC(F)(F)CN2C(=O)[C@H](CCc2ccc(C(F)(F)F)cc2)NC(=O)CN(C)C(=O)[C@H](Cc2ccc(Cl)cc2)N(C)C(=O)CN(C)C(=O)CN(C)C1=O [Compound 870] (cyclo(I[Sar][Sar][NMePhe(4-Cl)][Sar][hPhe(4-CF3)][Pro(4,4-F2)][NMeF][NMeL][d(β3hA)][NMeA]))	15 nM
CC[C@H](C)[C@@H]1NC(=O)[C@H](CC(C)C)N(C)C(=O)C[C@@H](C)N(C)C(=O)[C@H](C2CC2)N(C)C(=O)C2(CCCC2)NC(=O)[C@@H]2CCCN2C(=O)[C@H](CCc2ccc(C(F)(F)F)c(Cl)c2)NC(=O)CN(C)C(=O)[C@H](CC2CCCCC2)N(C)C(=O)CN(C)C(=O)CN(C)C1=O [Compound 874] (cyclo([Ac5c][NMeGly(cPr)][NMedβ3hAla][NMeL]I[Sar][Sar][NMeCha][Sar][hPhe(3-Cl-4-CF3)]P))	25 nM
CCCC[C@@H]1NC(=O)[C@H](Cc2cccc(I)c2)NC(=O)CN(C)C(=O)[C@H](Cc2ccc(Cl)cc2)N(C)C(=O)CN(C)C(=O)CN(C)C(=O)[C@H]([C@@H](C)CC)NC(=O)[C@H](CC(C)C)N(C)C(=O)C[C@@H](C(=O)N2CCCCC2)N(C)C(=O)[C@H](CC(C)C)NC(=O)[C@H](Cc2ccc(C)cc2)N(C)C1=O [Compound 876] ([NMeL]I[Sar][Sar][NMePhe(4-Cl)][Sar][Phe(3-I)][Nle][NMePhe(4-Me)]L[NMeD]-Piperidide; lactam N-11)	18 nM
CC[C@H](C)[C@@H]1NC(=O)[C@H](C)N(C)C(=O)C[C@@H](C(=O)N2CCCC2)NC(=O)[C@H](CC(C)C)N(C)C(=O)[C@H](CCc2ccccc2)N(C)C(=O)[C@H](CC(C)C)NC(=O)[C@H](CCc2ccc(C(F)(F)F)cc2)NC(=O)CN(C)C(=O)[C@H](Cc2ccc(Cl)cc2)N(C)C(=O)CN(C)C(=O)CN(C)C1=O [Compound 878] ([NMeA]I[Sar][Sar][NMePhe(4-Cl)][Sar][hPhe(4-CF3)]L[NMehPhe][NMeL]D-Pyrrolidide; lactam N-11)	320 nM
CC[C@H](C)[C@@H]1NC(=O)[C@H](CC(C)C)N(C)C(=O)CCN(C)C(=O)[C@H](C(C)C)N(C)C(=O)C2(CCCC2)NC(=O)[C@@H]2CCCN2C(=O)[C@H](CCc2ccc(C(F)(F)F)c(F)c2)NC(=O)CN(C)C(=O)[C@H](CC2CCCCC2)N(C)C(=O)CN(C)C(=O)CN(C)C1=O [Compound 879] (cyclo([Ac5c][NMeV][NMeβAla][NMeL]I[Sar][Sar][NMeCha][Sar][hPhe(3-F,4-CF3)]P))	36 nM
CC[C@H](C)[C@@H]1NC(=O)[C@H](C)N(C)C(=O)C[C@@H](C(=O)N2CCCC2)NC(=O)[C@H](CC(C)C)N(C)C(=O)[C@H](Cc2ccccc2)N(C)C(=O)[C@H](CC(C)C)NC(=O)[C@H](Cc2cccc(I)c2)NC(=O)CN(C)C(=O)[C@H](Cc2ccc(Cl)cc2)N(C)C(=O)CN(C)C(=O)CN(C)C1=O [Compound 884] ([NMeA]I[Sar][Sar][NMePhe(4-Cl)][Sar][Phe(3-I)]L[NMeF][NMeL]D-Pyrrolidide; lactam N-11)	63 nM
